Measurements from US20230049231A1 (priority 2019, published 2023).

What was measured:
[1] = molecular target: T1, Kv1.3 potassium channel (Homo sapiens, UniProt P22001); experiment: Kv1.3 potassium channel blocker activity, automated whole-cell patch clamp (Patchliner); type: cell-based; settings: Kv1.3 potassium channel, whole-cell patch clamp
T1 construct: expressed in transfected cells
Procedure, shortened: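 IC50 came from Hill-equation fits of peak and AUC currents from the final pulse at each concentration, normalized to compound-free control. Compounds applied consecutively at 30 nM to 100 μM (up to 0.3% DMSO) to Kv1.3-expressing CHO-K1 cells, P/4 leak subtraction. Pulses were +40 mV, 100 ms, from −90 mV holding, at 0.1 Hz on Patchliner.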

[2] = molecular target: T2, hERG channel (Homo sapiens, UniProt Q12809); experiment: hERG electrophysiology, automated whole-cell patch clamp (Patchliner); type: cell-based; settings: hERG channel, whole-cell patch clamp
T2 construct: expressed in transfected cells
Procedure, shortened: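 Currents were recorded at 0.3 Hz from −80 mV, stepping to +20 mV then −50 mV (300 ms each), in stably transfected CHO-K1 cells. Concentrations (30 nM–100 μM, up to 0.3% DMSO) were added sequentially without washout. IC50 came from Hill fits of control-normalized AUC/peak of each train's final pulse.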

T1 sequence (P22001 whole entry): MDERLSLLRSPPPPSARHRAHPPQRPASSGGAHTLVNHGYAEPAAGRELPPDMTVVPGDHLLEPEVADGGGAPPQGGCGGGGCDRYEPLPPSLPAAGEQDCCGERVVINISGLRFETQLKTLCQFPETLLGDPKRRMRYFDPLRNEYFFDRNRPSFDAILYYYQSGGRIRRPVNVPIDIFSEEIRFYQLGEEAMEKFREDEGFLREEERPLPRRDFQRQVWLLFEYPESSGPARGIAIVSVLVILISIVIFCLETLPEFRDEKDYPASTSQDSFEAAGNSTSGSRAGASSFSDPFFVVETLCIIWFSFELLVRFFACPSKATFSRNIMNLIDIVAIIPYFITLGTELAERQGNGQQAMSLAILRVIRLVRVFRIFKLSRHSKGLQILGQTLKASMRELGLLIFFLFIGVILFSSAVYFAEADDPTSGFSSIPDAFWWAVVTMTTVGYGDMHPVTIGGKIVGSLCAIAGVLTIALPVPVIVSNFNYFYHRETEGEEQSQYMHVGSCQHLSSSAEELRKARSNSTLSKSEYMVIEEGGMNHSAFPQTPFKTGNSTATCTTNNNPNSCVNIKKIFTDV
T2 sequence (Q12809 whole entry): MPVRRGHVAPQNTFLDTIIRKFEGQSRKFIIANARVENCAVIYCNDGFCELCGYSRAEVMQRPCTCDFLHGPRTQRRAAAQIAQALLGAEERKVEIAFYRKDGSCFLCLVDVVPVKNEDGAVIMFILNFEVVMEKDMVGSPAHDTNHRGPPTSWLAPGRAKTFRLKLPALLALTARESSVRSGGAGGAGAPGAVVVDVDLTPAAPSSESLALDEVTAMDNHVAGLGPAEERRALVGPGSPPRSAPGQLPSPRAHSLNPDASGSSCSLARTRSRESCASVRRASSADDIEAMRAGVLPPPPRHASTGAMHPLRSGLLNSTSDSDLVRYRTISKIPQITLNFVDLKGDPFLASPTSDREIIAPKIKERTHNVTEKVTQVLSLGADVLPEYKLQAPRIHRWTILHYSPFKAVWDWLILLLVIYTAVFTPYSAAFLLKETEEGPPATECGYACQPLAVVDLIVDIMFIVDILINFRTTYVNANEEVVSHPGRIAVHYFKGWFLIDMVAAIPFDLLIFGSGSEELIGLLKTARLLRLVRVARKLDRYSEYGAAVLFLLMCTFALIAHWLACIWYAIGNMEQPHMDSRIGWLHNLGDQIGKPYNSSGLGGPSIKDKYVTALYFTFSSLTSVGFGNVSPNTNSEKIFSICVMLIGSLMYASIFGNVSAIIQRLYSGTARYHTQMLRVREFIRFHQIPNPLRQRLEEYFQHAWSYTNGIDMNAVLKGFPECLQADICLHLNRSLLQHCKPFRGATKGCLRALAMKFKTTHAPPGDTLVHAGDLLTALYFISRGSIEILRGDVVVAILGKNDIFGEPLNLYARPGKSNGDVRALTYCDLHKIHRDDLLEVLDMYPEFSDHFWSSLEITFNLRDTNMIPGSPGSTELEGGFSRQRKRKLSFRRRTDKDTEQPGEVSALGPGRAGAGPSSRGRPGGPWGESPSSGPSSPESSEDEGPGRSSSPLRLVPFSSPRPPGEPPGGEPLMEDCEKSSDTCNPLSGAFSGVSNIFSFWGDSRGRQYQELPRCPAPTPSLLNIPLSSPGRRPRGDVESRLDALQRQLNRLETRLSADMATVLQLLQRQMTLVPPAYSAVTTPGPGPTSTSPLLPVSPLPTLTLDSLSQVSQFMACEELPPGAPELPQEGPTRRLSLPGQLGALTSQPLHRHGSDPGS

SMILES | IC50 [1] | IC50 [2]
NC(=O)CC1OC[C@@H]2C[C@H](c3c(O)ccc(Cl)c3Cl)CCN2C1=O (stereo partly drawn) [Compound 187, 2-[(8R,9aS)-8-(2,3-dichloro-6-hydroxyphenyl)-4-oxo-hexahydro-1H-pyrido[2,1-c][1,4]oxazin-3-yl]acetamide] | < 1 µM | > 30 µM
CNC(=O)CC1OC[C@@H]2C[C@H](c3c(O)ccc(Cl)c3Cl)CCN2C1=O (stereo partly drawn) [Compound 188, 2-[(8R,9aS)-8-(2,3-dichloro-6-hydroxyphenyl)-4-oxo-hexahydro-1H-pyrido[2,1-c] [1,4]oxazin-3-yl]-N-methylacetamide] | < 1 µM | > 30 µM
O=C1CC(N2CCOCC2)C[C@@H]2C[C@H](c3c(O)ccc(Cl)c3Cl)CN12 (stereo partly drawn) [Compound 195, (2R,8aS)-2-(2,3-dichloro-6-hydroxyphenyl)-7-(morpholin-4-yl)-hexahydro-1-indolizin-5-one] | < 1 µM | < 30 µM
CC(=O)NC1CC(=O)N2C[C@@H](c3c(O)ccc(Cl)c3Cl)C[C@H]2C1 (stereo partly drawn) [Compound 206, N-[(2R,8aS)-2-(2,3-dichloro-6-hydroxyphenyl)-5-oxo-hexahydro-1H-indolizin-7-yl]acetamide] | < 1 µM | > 30 µM
O=C1CC(O)(CO)C[C@@H]2C[C@H](c3c(O)ccc(Cl)c3Cl)CN12 (stereo partly drawn) [Compound 220, (2R,8aS)-2-(2,3-dichloro-6-hydroxyphenyl)-7-hydroxy-7-(hydroxymethyl)-hexahydroindolizin-5-one] | < 1 µM | > 30 µM
CNC(=O)C1CC(=O)N2C[C@@H](c3c(O)ccc(Cl)c3Cl)C[C@H]2C1 (stereo partly drawn) [Compound 232, (2R,8aS)-2-(2,3-dichloro-6-hydroxyphenyl)-N-methyl-5-oxo-hexahydro-1H-indolizine-7-carboxamide] | < 1 µM | > 30 µM
CN(C)CC1CC(=O)N2C[C@@H](c3c(O)ccc(Cl)c3Cl)C[C@H]2C1 (stereo partly drawn) [Compound 240, (2R,8aR)-2-(2,3-dichloro-6-hydroxyphenyl)-7-[(dimethylamino)methyl]-hexahydro-1H-indolizin-5-one] | < 1 µM | < 10 µM
O=C1CC(CN2CCNCC2)C[C@@H]2C[C@H](c3c(O)ccc(Cl)c3Cl)CN12 (stereo partly drawn) [Compound 241, (2R,8aR)-2-(2,3-dichloro-6-hydroxyphenyl)-7-(piperazin-1-ylmethyl)-hexahydro-1H-indolizin-5-one] | < 1 µM | > 30 µM
O=C1CC(O)C[C@@H]2C[C@H](c3c(O)ccc(Cl)c3Cl)CCN12 (stereo partly drawn) [Compound 250, (8R,9aS)-8-(2,3-dichloro-6-hydroxyphenyl)-2-hydroxy-octahydroquinolizin-4-one] | < 1 µM | > 30 µM
CC1(C)OC(=O)N2C[C@@H](c3c(O)ccc(Cl)c3Cl)C[C@H]2C1O (stereo partly drawn) [Compound 257, (4aS,6R)-6-(2,3-dichloro-6-hydroxyphenyl)-4-hydroxy-3,3-dimethylhexahydro-1H-pyrrolo[1,2-c][1,3]oxazin-1-one] | < 1 µM | > 30 µM
CC(=O)NCC1OC(=O)N2C[C@@H](c3c(O)ccc(Cl)c3Cl)C[C@@H]12 (stereo partly drawn) [Compound 276, N-[[(6R,7aS)-6-(2,3-dichloro-6-hydroxyphenyl)-3-oxo-tetrahydro-1H-pyrrolo[1,2-c][1,3]oxazol-1-yl]methyl]acetamide] | < 1 µM | > 30 µM
CNCC1OC(=O)N2C[C@@H](c3c(O)ccc(Cl)c3Cl)C[C@@H]12 (stereo partly drawn) [Compound 281, (6R,7aS)-6-(2,3-dichloro-6-hydroxyphenyl)-1-[(methylamino)methyl]-tetrahydro-1H-pyrrolo[1,2-c][1,3]oxazol-3-one] | < 1 µM | < 30 µM
O=C(C1OC(=O)N2C[C@@H](c3c(O)ccc(Cl)c3Cl)C[C@@H]12)N1CCNCC1 (stereo partly drawn) [Compound 289, (6R,7aS)-6-(2,3-dichloro-6-hydroxyphenyl)-1-(piperazine-1-carbonyl)-tetrahydro-1H-pyrrolo[1,2-c][1,3]oxazol-3-one] | < 1 µM | > 30 µM

The next lines start with results.

IC50 [1] | SMILES | IC50 [2]
< 1 µM | NCC1CC(=O)N2C[C@@H](c3c(O)ccc(Cl)c3Cl)C[C@H]2C1 (stereo partly drawn) [Compound 217, (2R,8aR)-7-(aminomethyl)-2-(2,3-dichloro-6-hydroxyphenyl)-hexahydro-1H-indolizin-5-one] | > 30 µM
< 1 µM | O=C1CCC[C@@H]2C[C@H](c3c(O)ccc(Cl)c3Cl)CN12 [Compound 223, (2R,8aR)-2-(2,3-dichloro-6-hydroxyphenyl)-hexahydro-1H-indolizin-5-one] | > 30 µM
< 1 µM | O=C1C(O)C(O)C[C@@H]2C[C@H](c3c(O)ccc(Cl)c3Cl)CN12 (stereo partly drawn) [Compound 226, (2R,8aS)-2-(2,3-dichloro-6-hydroxyphenyl)-6,7-dihydroxy-hexahydro-1H-indolizin-5-one] | > 30 µM
< 1 µM | O=C1OC[C@@H]2C[C@H](c3c(O)ccc(Cl)c3Cl)CN12 [Compound 251, (6R,7aS)-6-(2,3-dichloro-6-hydroxyphenyl)-tetrahydro-1H-pyrrolo[1,2-c][1,3]oxazol-3-one] | < 30 µM
< 1 µM | NCCN1C[C@@H]2C[C@H](c3c(O)ccc(Cl)c3Cl)CN2C1=O [Compound 292, (6R,7aS)-2-(2-aminoethyl)-6-(2,3-dichloro-6-hydroxyphenyl)-tetrahydro-1H-pyrrolo[1,2-c]imidazol-3-one] | < 30 µM
< 1 µM | O=C1NC[C@@H]2C[C@H](c3c(O)ccc(Cl)c3Cl)CN12 [Compound 293, (6R,7aS)-6-(2,3-dichloro-6-hydroxyphenyl)-hexahydropyrrolo[1,2-c]imidazol-3-one] | > 30 µM
